These results are taken from patent EP2353599A1, “8-hydroxyquinolines as inhibitors of cathepsin B” (University of Ljubljana, priority 2010, dated 2011).

One experiment concerns MCF-10A neoT cell. In words: DQ-collagen IV degradation by fluorescence microscopy. It counts as cell-based. To be noted: 10 µM, 24 h. The procedure: 5-nitro-8-hydroxyquinoline was also tested for the ability to inhibit intracellular and extracellular degradation of DQ-collagen IV. First, inhibitory effect was observed using fluorescence microscopy. Wells of precooled Lab-Tek™ Chambered Coverglass (Nalge Nunc International) were coated with 25 µg/ml of the quenched fluorescent substrate DQ-collagen IV suspended in 40 µl of 100 % Matrigel for 10 min at 4°C. DQ-collagen IV/Matrigel matrix was allowed to polymerize for 40 min at 37°C. 400 µl of MCF-10A neoT cell suspension (1.5x10^5/ml) in growth medium containing 2 % Matrigel and 10 µM of 5-nitro-8-hydroxyquinoline were plated onto gelled Matrigel. After 24 h incubation at 37°C with 5 % CO2 the samples were monitored for fluorescent degradation products using Olympus IX 81 motorized inverted microscope and CellR software. CA-074 and CA-074Me were used as positive controls.

Experiment [1] has as its target T1, Cathepsin B (Homo sapiens, UniProt P07858). The experiment in a line: Cathepsin B exopeptidase activity, enzyme kinetics with substrate Abz-GIVRAK(Dnp)-OH. It counts as biochemical. The method, then:
The effect of 5-nitro-8-hydroxyquinoline on cathepsin B exopeptidase activity was assessed with an exopeptidase substrate Abz-GIVRAK(Dnp)-OH. 5 µl of Abz-GIVRAK(Dnp)-OH (final concentration 1, 3 and 6 µM) and 5 µl of 5-nitro-8-hydroxyquinoline at increasing concentrations were added to wells of a black microplate. 90 µl of human recombinant cathepsin B was then added to a final concentration of 0.25 nM in activation buffer (60 mM acetate buffer, pH 5.0 with 0.1 % PEG, 5 mM DTT and 1.5 mM EDTA). All assay mixtures contained a constant amount of DMSO, i.e. 5 %.
Formation of fluorescent degradation product was continuously monitored at 320 nm ± 20 nm excitation and 420 nm ± 10 nm emission wavelengths on Tecan Safire^2™ at 37°C. Mechanism and the constant of inhibition (Ki) of cathepsin B exopeptidase activity were determined using the graphical method according to Cornish-Bowden (Cornish-Bowden A: A Simple Graphical Method for Determining the Inhibition Constants of Mixed, Uncompetitive and Non-Competitive Inhibitors. Biochem J 1974, 137:143-4.) and using the SigmaPlot® 11, Enzyme Kinetics Module™ 1.3.

Experiment [2] deals with T1, Cathepsin B. The experiment in a line: Reversibility of cathepsin B inhibition by enzyme kinetics (100-fold dilution of enzyme-inhibitor complex). The format is biochemical. To be noted: for enzyme inhibition after dilution of the complex: inhibitor at 10-fold IC50, 100-fold dilution. The method, then:
Reversibility of cathepsin B inhibition with 5-nitro-8-hydroxyquinoline was determined with three independent experiments. First, we used enzyme kinetics. Cathepsin B at 100-fold its final assay concentration (10 nM) and 5-nitro-8-hydroxyquinoline at 10-fold its IC50 were incubated for 5, 15 and 30 min at room temperature at 2 µl. The enzyme-inhibitor complex was then diluted 100-fold with 5 µM Z-RR-AMC to a final volume of 200 µl, initiating the reaction. Before the dilution of the enzyme-inhibitor complex the enzyme's activity is inhibited by 90 %. In the case of a reversible inhibitor after dilution this percentage is reduced to 9 %. In the case of an irreversible inhibitor the percentage stays unchanged (90 %).

The test system of a further experiment is MCF-10A neoT cell line. The experiment in a line: Millicell Matrigel in vitro tumour cell invasion assay. Particulars: Homo sapiens, 24 h, read-out: inhibition of tumour invasion compared to DMSO control. The format is cell-based. The method, then: To assess the ability of 5-nitro-8-hydroxyquinoline to inhibit tumour cell invasion two independent experiments were used. First, an in vitro invasion model using Millicell Cell culture inserts (12 mm polycarbonate inserts with 12 µm pores) was performed. The bottom sides of 24-wells were coated with 100 µl of fibronectin from bovine plasma (25 µg/ml) and left in a laminar hood to dry. The upper side of Millicell inserts was coated with 100 µl of Matrigel (0.75 mg/ml in serum free medium) and incubated for 1 h at 37 °C. The inserts were then placed in with fibronectin coated wells. The upper compartments of the inserts were filled with 200 µl MCF-10A neoT cell suspension (7.5x10^5/ml) containing 5-nitro-8-hydroxyquinoline (10 µM) in serum free medium and the bottom compartments were filled 500 µl of medium containing 10 µM 5-nitro-8-hydroxyquinoline and 10 % fetal calf serum. After 24 h incubation the bottom sides of wells were washed with 500 µl of PBS and the cells that were attached were detached by 0.05 % trypsin and 0.02 % EDTA in PBS. […] After a 2 h incubation period the absorbance was measured at 490 nm. […] The percentage of cell invasion was calculated as the ratio between the invading cells and the total cell population.

The next experiment has as its target cathepsin L (Homo sapiens, UniProt P07711). In words: Selectivity: Ki against cathepsin L, substrate Z-FR-AMC. The format is biochemical. The method, then:
Activation buffer used with cathepsin L was 100 mM acetate buffer, pH 5.5 with 0.1 % PEG, 5 mM DTT and 1.5 mM EDTA and with cathepsin H was 100 mM phosphate buffer, pH 6.8 with 0.1 % PEG, 5 mM DTT and 1.5 mM EDTA. Table II. Ki values for 5-nitro-8-hydroxyquinoline determined against cathepsins B, L and H.

Experiment [3] deals with T1, Cathepsin B. The experiment in a line: Cathepsin B endopeptidase activity, enzyme kinetics with substrate Z-RR-AMC. The format is biochemical. The method, then:
The effect of 8-hydroxyquinolines on cathepsin B enzymatic activity was assessed using enzyme kinetics. First, the effect of 8-hydroxyquinolines on cathepsin B endopeptidase activity was assessed using the cathepsin B specific endopeptidase substrate Z-RR-AMC. 5 µl of the Z-RR-AMC (final concentration 60, 180 and 360 µM) and 5 µl of respective compound at increasing concentrations were added to wells of a black microplate. 90 µl of human recombinant cathepsin B was then added to a final concentration of 0.4 nM in activation buffer (100 mM phosphate buffer, pH 6.0 with 0.1 % PEG, 5 mM DTT and 1.5 mM EDTA). All assay mixtures contained a constant amount of DMSO, i.e. 5 %. Formation of fluorescent degradation product was continuously monitored at 380 nm ± 20 nm excitation and […] ± 10 nm emission wavelengths on Tecan Safire^2™ at 37°C. Mechanism and the constant of inhibition (Ki) of cathepsin B endopeptidase activity were determined using the graphical method according to Cornish-Bowden (Cornish-Bowden A: A Simple Graphical Method for Determining the Inhibition Constants of Mixed, Uncompetitive and Non-Competitive Inhibitors. Biochem J 1974, 137:143-4.) and using the SigmaPlot® 11, Enzyme Kinetics Module™ 1.3. Table I. Results of testing the compounds according to Formula (I) on cathepsin B endopeptidase activity.

Chain of cathepsin L (P07711 114-333, species assumed): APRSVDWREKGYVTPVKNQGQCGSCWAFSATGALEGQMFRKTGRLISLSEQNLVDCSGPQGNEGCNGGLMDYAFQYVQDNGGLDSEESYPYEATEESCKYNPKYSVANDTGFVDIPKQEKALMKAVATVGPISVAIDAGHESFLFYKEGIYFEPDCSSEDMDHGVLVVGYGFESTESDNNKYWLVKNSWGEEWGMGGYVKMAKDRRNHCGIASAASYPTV

With `O=[N+]([O-])c1ccc(O)c2ncccc12` [Compound 1, 5-nitro-8-hydroxyquinoline], the “inhibition of DQ-collagen IV degradation (fluorescence microscopy)” value in the experiment with MCF-10A neoT cell was “inhibited both intracellular and extracellular DQ-collagen IV degradation”. Further, the Mechanism of inhibition entry at Cathepsin B [1] (cathepsin B exopeptidase activity) is reported as “non-competitive”; on cathepsin L it was “competitive”; at Cathepsin B [3] (cathepsin B endopeptidase activity) it was “uncompetitive inhibition”. Further, the Ki on Cathepsin B [1] (exopeptidase activity, substrate Abz-GIVRAK(Dnp)-OH, pH 5.0, 37°C) turned out to be 220 ± 13.3 µM; at cathepsin L (substrate Z-FR-AMC, pH 5.5) it was 175 ± 17.1 µM; at Cathepsin B [3] (endopeptidase activity, substrate Z-RR-AMC, pH 6.0, 37°C) it was 37.7 ± 3.5 µM. Moreover, the “inhibits endopeptidase activity more potently than exopeptidase activity” value on Cathepsin B [1] (ratio of exopeptidase Ki to endopeptidase Ki) was found to be 5.8 times. For the same molecule, the “enzyme inhibition after dilution of the complex” value on Cathepsin B [2] (5 min incubation) is reported as 21.7 ± 2.2%; on Cathepsin B [2] (15 min incubation), 25.2 ± 3.5%; on Cathepsin B [2] (30 min incubation) it was 27.6 ± 3.2%. Also, the “calculated value of inhibition” value on Cathepsin B [2] (expected inhibition after dilution considering the Hill coefficient) is 15%. In addition, the inhibition at 10 µM in the experiment on MCF-10A neoT cell line was determined as 40.7%.

The term Ki denotes the equilibrium dissociation constant of an inhibitor or competing ligand from its target. The low end stands for a stronger hold on the target, the high end for a looser hold on the target. As usually defined, the inhibition is the change of the read-out against control, counted positive when it falls.
